How the values were obtained:
p24 Gag protein = experiment: Western blot of p24 Gag protein, pNL4-3-transfected HeLa cells and viral progeny; format: cell-based, HIV-1; settings: increasing concentration
From the text: In vitro, this process occurs in the presence of nucleic acids and a cofactor (Campbell, 1999; Campbell, 2001). Immature particles fail to consolidate an outer membrane, emphasizing the critical role of Gag proteins in the assembly process (Didierlaurent, 2008). As virions bud from the host membrane, viral protease cleaves p55 Gag into its final mature components: matrix (p17), capsid (p24), nucleocapsid (p7) and p6, each designated by its apparent molecular weight. […] Effects may extend across the Gag polyprotein and its components, further compounding activities.

F2 zinc finger peptide = F2 zinc finger peptide (Human immunodeficiency virus type 1 group M subtype B, UniProt P12493)
Description: Solutions of F2 zinc finger peptide in phosphate-buffered saline without calcium or magnesium (see Example 1) alone or mixed with zinc and/or platinum compounds were analyzed by MALDI-TOF (matrix-assisted laser desorption/time-of-flight) MS (mass spectrometry). Briefly, the samples comprised 1:1 ratios of F2 peptide with metals in phosphate buffered saline without calcium or magnesium at 2×10 moles/liter concentrations. Additionally, samples containing both Zn(II) and Pt(IV) metals with F2 peptide in a 1:1:1 ratio were analyzed, as were various Pt(IV) and Pt(II) compounds mixed with F2 peptide solutions. Samples were considered to be at equilibrium after 12 hours stored at 4° C. Volumes of 0.5-1.0 microliters for each sample were individually spotted with or without dilution at 1:10, 1:100 or 1:1000 (˜165-193 pmole/microliter) in DHB matrix (Laser Biolabs, France). […]
The main group of peaks include at least two overlapping peaks characteristic of cysteines (see note above) with neutral mass within 2451.82-2457.82 Da, singly charged ions at m/z 2452.82-2458.82 Da. […] While MALDI-TOF MS is not quantitative, relative peak heights are proportional to relative amounts of species.

[1] = molecular target: synthetic peptide F2, the carboxy-terminal zinc finger domain of HIV-1 (Human immunodeficiency virus type 1 group M subtype B, UniProt P12493); settings: 100 pmole/microliter solutions, equal volumes; isotopic distribution of platinum at m/z~631
Description: FIGS. 1A and 1B show Time of Flight (TOF) mass spectroscopy (MS) fragmentation pattern of the synthetic peptide F2, the carboxy-terminal zinc finger domain of HIV-1, bound to platinum. […] Equal volumes of F2 with FX101, F2 with ZnCO3, F2 with both FX101 and ZnCO3 were mixed, resulting in four total peptide solutions. Full TOF MS was acquired on the QSTAR at the Johns Hopkins Proteomics Core Facility with 1 uL of original sample diluted 1:10 in 50% methanol with 0.1% formic acid/water and 3 uL of this mixture loaded onto the 2 um New Objective tip and nano-sprayed using ion spray voltage of 1200 eV; mass calibration of Csl mixture was performed prior to sample injection. Mass range 590 kDa (50%) to 10500 kDa (50%) was collected for 1.0 minute.

FIV Petaluma = experiment: p25 antigen evaluation of antiviral activity in MBM cells; format: cell-based, feline; settings: for p25 Viral Antigen (OD), average / p25 Viral Antigen (OD), individual wells: 7 days post infection, K+ = 1.195, K− = 0.08, listed as 4
Description: Antiviral activity in MBM was determined by inoculating 200 Tissue Culture Infectious Doses 50% FIV Petaluma (Talbott, 1989) in 100 μL RPMI 1640 medium into quadruplicate wells of 96-well microplates containing 2×10^5 cells in 100 μL medium. The cultures were monitored by measuring FIV p25 capsid protein (Lombardi, 1994) release in the supernatants after 7 days of incubation at 37° C. in 5% CO2 (Table 12). Half the media (without drug) was replaced on days 2 and 6 after infection and initial drug exposure. […] Drugs are identified as: CPA-7 (#1); NAD (#2); cisplatin (#3) and FX101 (#4). […]. […] A minimum of 50% inhibition in vitro is required to offset viral infectivity and replication in vivo.

`[NH2][Pt]([NH2])([Cl])([Cl])([Cl])[N+](=O)[O-]` [FX101, nitrotrichlorodiamminoPt(IV)] was tested, and the “mature p24 content in host cells and viral progeny (Western blot)” value (p24 Gag protein) was “absence of mature p24”, the “competition with zinc for the F2 zinc finger binding domain” value (F2 zinc finger peptide; 1:1:1 F2:FX:Zn) was “thermodynamic competition of FX over zinc” and the “coordination with F2 peptide (set of peaks at m/z 2452.82-2458.82 Da)” value (F2 zinc finger peptide; 1:1 with F2 peptide in PBS, 12 hours at 4° C.) was “unique to the F2 peptide+FX spectral complex”. The “direct binding of platinum to F2 peptide by TOF MS” value [1] was “Pt-bound peptide”, the “inhibition (elimination of all measures of virus) by day 7” value (FIV Petaluma; 7 days, concentrations used 5 and 20 μM, listed as #4) was 100% and the “p25 Viral Antigen (OD), average” value (FIV Petaluma; conc 5 μM) was 0 OD. For the same compound, the “p25 Viral Antigen (OD), individual wells” value (FIV Petaluma; conc 5 μM) was 0 OD, the “p25 Viral Antigen (OD), average” value (FIV Petaluma; conc 20 μM) was 0 OD and the “p25 Viral Antigen (OD), individual wells” value (FIV Petaluma; conc 20 μM) was 0 OD.
